Laboratory results taken from patent publication US20090074824A1, “STABLE NANOCAPSULE SYSTEMS FOR THE ADMINISTRATION OF ACTIVE MOLECULES” (priority 2006, published 2009).
Converted amounts (≈) assume the structure as drawn.

Assay: physchem

solubility: 5 µg/mL (≈ 10.5 µM)
SMILES: CCCCC(=O)O[C@]1(C(=O)CO)[C@@H](C)C[C@H]2[C@@H]3CCC4=CC(=O)C=C[C@]4(C)[C@@]3(F)[C@@H](O)C[C@@]21C [betamethasone valerate, Betamethasone valerate]
